Where “and” joins values, the source holds several entries; their conditions need not be identical. Identical values can stand only once.
Experiments:
LAMP1 = LAMP1 fluorescence in rat cortical neurons; format: cell-based; details: A53T a-syn
From the text: Pregnant rats (E17) of the Sprague-Dawley strain were purchased from Envigo. Embryos were surgically removed from the mothers and cortices dissected in Hanks Balanced salt solution (Gibco). The meninges were removed, and cells were dissociated using a papain dissociation system (Worthington) before being resuspended in Neurobasal medium A supplemented with antibiotic-antimycotic solution (Gibco), L-glutamine substitute (GlutaMAX™; Gibco) and factor B27 (Gibco). […]
After fixation, cells were permeabilized with 0.2% Triton-X-100 for 15 min, washed three times with PBS and then incubated with blocking solution (1% BSA, 22.52 mg/mL glycine, 0.1% Tween-20 in PBS or 0.4% saponin, 1% BSA, and 5% goat or donkey serum in PBS) for 1 h. […] Following another three washes with PBS, nuclei were counterstained with DAPI (ThermoFisher) and then coverslips were mounted on slides using Dako fluorescence mounting medium (Agilent) and sealed using clear nail varnish.
(§1) Confocal images of primary cortical neurons, iPSC-derived dopaminergic neurons, and LAMP1 staining within the SN were processed using Imaris software (Oxford instruments). […] Mean pixel intensity per GFP^+ cell (for experiments using GFP-tagged peptides) or RFP^+ cell (for experiments using RFP-tagged peptides) was calculated for a-syn or LAMP1 signal using the software’s surfaces module. […]

A53T a-syn or EV rats = test: Cylinder test, forelimb asymmetry; format: in vivo, rat; set-up: Forelimb asymmetry in cylinder test: scale not given here; details: for Forelimb asymmetry in cylinder test: individual rats
Protocol: Animals were secured in a stereotactic frame under isoflurane/oxygen anesthesia and ketoprofen (5 mg/kg) analgesia. The surgical site was shaved and sterilized with iodine/betadine prior to making a 2 cm incision along the midline. The scalp was exposed and a unilateral injection targeting the SN was performed at coordinates AP −5.2 mm, ML −2 mm and DV −7.5 mm with respect to the bregma as a point of reference. For each animal, a total volume of 2 μl of virus was injected at a rate of 0.5 μl/min using a microinjection pump and 10 μl Hamilton syringe with a 26-gauge needle. For A53T groups, 1 μl (low dose) or 1.34 μl (high dose) of AAV1/2-A53T a-syn (5.1 × 10^12 genomic particles/ml), 0.14 μl of AAV1/2-PDpep1.3-GFP or Scramble1.3-GFP (5.1 × 10^12 genomic particles/ml) and 0.86 μl or 0.52 μl of sterile PBS was injected; for EV groups, 1 μl (low dose) or 1.34 μl (high dose) of AAV1/2-EV (5.1 × 10^12 genomic particles/ml) replaced AAV1/2-A53T. For V1S/SV2 groups, 0.58 μl of AAV1/2-V1S (1.1 × 10^12 genomic particles/ml), 0.58 μl of AAV1/2-SV2 (1.1 × 10^12 genomic particles/ml), 0.14 μl of AAV1/2-PDpep1.3-RFP or Scramble1.3-RFP (5.1 × 10^12 genomic particles/ml) and 0.7 μl of sterile PBS was injected; for the YFP groups, 1.16 μl of AAV1/2-YFP (1.1 × 10^12 genomic particles/ml), 0.14 μl of AAV1/2-PDpep1.3-RFP or Scramble1.3-RFP (5.1 × 10^12 genomic particles/ml) and 0.7 μl of sterile PBS was injected. At the end of virus injection, the needle remained in place for 5 min before gradual removal.
Spontaneous forepaw use was evaluated using the cylinder test 1 day prior to stereotactic AAV injection, at 21 days post-injection, and at 41 days post-injection. Following overnight food restriction, individual rats with right paws marked black were placed into a glass cylinder in front of two mirrors and videos recorded. An observer blinded to treatment conditions later scored the videos by recording whether animals used their left forepaw, right forepaw, or both forepaws to touch the inner glass surface upon rearing. A total of 5 min of video recording was scored and a minimum of 10 total touches was required for data inclusion.

pS129 a-syn puncta = test: PFF-induced a-syn seeding, pS129 a-syn puncta in cortical neurons; format: cell-based, rat
Protocol: PFFs synthesized from recombinant human a-syn were added to primary neuronal cultures to seed recruitment of endogenous a-syn into pS129 a-syn^+ aggregates. Recombinant human a-syn PFFs were purchased from StressMarq Biosciences (SPR-322B). Cells were plated on poly-D-lysine coated glass coverslips in 24-well cell culture plates at a density of 5 × 10^5 cells/well, and incubated at 37 °C in 5% CO2 with half media changes every 3 days. […] On day 8 post-isolation, cells were treated with 1.5 µg of recombinant a-syn PFFs. […]
as §1, with “module. The software’s surfaces module was used to identify GFP^+/NeuN^+ cells, and number of pS129 a-syn^+ puncta per GFP^+/NeuN^+ cortical neuron was counted using the software’s spots module. Mean pixel intensity per RFP^+/NeuN^+ cortical neuron was calculated for Rab7, cathepsin B, or cathepsin D signals using the software’s surfaces module.” for “module.”

Sequence: DEEIERQLKALG [PDpep1.3]
- Effect on LAMP1, neurons (LAMP1): restored LAMP1 levels
- Forelimb asymmetry in cylinder test (A53T a-syn or EV rats; A53T, 3 WPI): -28.57 and 24.32 and 52.38 and 33.3333 and 9.524 and -2.857
- Forelimb asymmetry in cylinder test (A53T a-syn or EV rats; A53T, 6 WPI): -12.5 (2×) and 25.93 and 21.43 and 6.98
- Forelimb asymmetry (A53T a-syn or EV rats; A53T, 6 weeks): comparable to controls
- Forelimb asymmetry in cylinder test (A53T a-syn or EV rats; A53T, baseline (prior to injection)): -7.41 and 24.14 and 18.18 and 22.22 and -2.4 and -27.78 and 19.4
- Forelimb asymmetry in cylinder test (A53T a-syn or EV rats; EV, 3 WPI): 3.448 and -28.5714 and 80.9524 and -6.849 and 10.3448 and -26.6667 and 19.4444
- Forelimb asymmetry in cylinder test (A53T a-syn or EV rats; EV, 6 WPI): 20 and -14.29 and 37.5 and -3.23 and 75 and -33.33 and 3.03
- Forelimb asymmetry in cylinder test (A53T a-syn or EV rats; EV, baseline (prior to injection)): 21.95 and -4 and 13.16 and -24.75 and 1.82 and 24.14 and 9.8
- Effect on endogenous a-syn aggregates (pS129 a-syn puncta): reduced the number of endogenous a-syn aggregates
